The subject of data set [1] is Soybean seeds of a Pioneer elite germplasm. The data set is described as follows: Soybean germination phytotoxicity test. The note with it: for soybean seed germination and growth: 16 days.
Data set [2] concerns Arabidopsis ecotype Columbia (Col-O). The data set is described as follows: Arabidopsis root growth inhibition assay. To be noted: 6 days. Here is the method:
Phytotoxicity of other major dicamba decarboxylated products was evaluated using Arabidopsis root growth inhibition assay. 4-chloro-3-methoxy phenol was purchased from Biogene Organics, Inc. (catalog number U06-642-79). 2,5-dichloro phenol was purchased from Sigma-Aldrich (catalog number D70007). Briefly, seeds of Arabidopsis ecotype Columbia (Col-O) were surface sterilized with 70% (v/v) ethanol for 5 minutes and 10% (v/v) bleach for 15 minutes. After being washed three times with distilled water, the seeds were germinated on 1× Murashige and Skoog (MS) medium with a pH of 5.7, 3% (w/v) sucrose, and 0.8% (w/v) agar. After incubation for 3.5 days, the seedlings were transferred to 1× MS medium containing B5 vitamin, 3% (w/v) sucrose, 1.2% (w/v) agar, and filter sterilized compounds was added to the media at 60° C. The concentrations of compounds including dicamba were 0 μM, 1.0 μM, and 10 μM. The seedlings were placed vertically, and the temperature maintained at 23° C. to allow root growth along the surface of the agar, with a photoperiod of 16 h of light and 8 h of dark.
After 6 days on media, root growth was evaluated. In wild type Arabidopsis, root growth inhibition is expected from auxin herbicide treatment.

“Also recorded” adds a separate entry of the source.

Data on 2 molecules can be found in patent US20140287419A1, “Compositions Having Dicamba Decarboxylase Activity and Methods of Use” (priority 2013, published 2014).

For `COc1cc(Cl)ccc1Cl` [2,5-DCA, 2,5-dichloro anisole], the “soybean seed germination and growth” value in data set [1] (1 μM in germination media) was “seed germination and growth were normal”; in data set [1] (10 μM in germination media), “seed germination and growth were normal”; in data set [1] (100 μM in germination media), “did not have any obvious impact on soybean germination and growth”. For the same molecule, the soybean germination result in data set [1] (FIG. 2 legend, no concentration given) is recorded as “not affected”.

For `Oc1cc(Cl)ccc1Cl` [2,5-dichloro phenol], the Arabidopsis root growth entry in data set [2] (1.0 uM in MS medium) and in data set [2] (10 uM in MS medium) was “not affected; also recorded: did not have any effect on the growth of Arabidopsis roots” throughout.
